Values of other authors in US8293290B2, “Annatto extract compositions, including geranyl geraniols and methods of use” (American River Nutrition, Inc., priority 2003, dated 2012).

What was measured:
[1] = system: prostate cancer patients; settings: after one year of CoQ10 supplementation
[2] = exogenous oral supplementation
[3] = system: cytochrome P450 enzymes
[4] = target: T1, PPARγ (Mus musculus, UniProt P37238); settings: at the adipocytes
T1 construct: host or cells: 3T3-L1 adipocytes (from the cited title only)
T1 sequence (P37238 1-505): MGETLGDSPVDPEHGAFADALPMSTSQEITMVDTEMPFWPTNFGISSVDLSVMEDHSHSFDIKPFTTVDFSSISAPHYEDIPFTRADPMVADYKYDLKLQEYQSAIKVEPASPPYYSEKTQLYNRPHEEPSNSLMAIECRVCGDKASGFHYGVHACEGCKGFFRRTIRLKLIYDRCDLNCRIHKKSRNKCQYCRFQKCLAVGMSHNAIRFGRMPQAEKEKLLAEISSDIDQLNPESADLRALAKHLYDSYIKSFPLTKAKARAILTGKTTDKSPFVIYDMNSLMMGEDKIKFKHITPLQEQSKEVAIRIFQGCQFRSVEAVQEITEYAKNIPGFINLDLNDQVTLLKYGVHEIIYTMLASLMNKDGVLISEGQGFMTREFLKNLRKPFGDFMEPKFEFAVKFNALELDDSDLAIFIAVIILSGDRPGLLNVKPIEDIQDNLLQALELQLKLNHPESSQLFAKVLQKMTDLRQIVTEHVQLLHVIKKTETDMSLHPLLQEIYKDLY

[5] = system: untransformed cells or normal cells
[6] = target: T2, PPARα (Homo sapiens, UniProt Q07869); settings: at the hepatocytes
T2 construct: host or cells: HepG2 hepatocytes (from the cited title only)
T2 sequence (Q07869 1-468): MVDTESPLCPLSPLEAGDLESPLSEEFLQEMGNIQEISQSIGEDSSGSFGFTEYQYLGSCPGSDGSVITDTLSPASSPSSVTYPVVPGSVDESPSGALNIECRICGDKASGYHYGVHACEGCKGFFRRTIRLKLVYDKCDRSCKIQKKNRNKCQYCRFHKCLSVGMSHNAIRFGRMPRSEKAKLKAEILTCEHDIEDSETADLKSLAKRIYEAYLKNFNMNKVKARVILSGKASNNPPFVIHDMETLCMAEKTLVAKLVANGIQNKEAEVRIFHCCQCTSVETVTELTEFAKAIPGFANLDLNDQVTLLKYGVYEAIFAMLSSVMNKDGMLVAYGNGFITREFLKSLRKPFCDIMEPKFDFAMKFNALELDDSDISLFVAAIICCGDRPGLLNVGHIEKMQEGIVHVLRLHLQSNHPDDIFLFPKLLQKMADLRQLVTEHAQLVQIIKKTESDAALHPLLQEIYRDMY

SMILES	decrease of prostate mass [1]	decrease of prostate specific antigen (PSA) [1]	fraction of supplemental CoQ10 absorbed [2]	inhibition of cytochrome P450 enzymes (incl. CYP3A4) [3]	PPARγ activation [4]	cytotoxicity (cell rounding, indicator of myotoxicity) [5]	toxicity to untransformed cells or normal cells [5]	PPARα activation [6]
COC1=C(OC)C(=O)C(C/C=C(\C)CC/C=C(\C)CC/C=C(\C)CC/C=C(\C)CC/C=C(\C)CC/C=C(\C)CC/C=C(\C)CC/C=C(\C)CC/C=C(\C)CCC=C(C)C)=C(C)C1=O [CoQ10, coenzyme Q10]	47%	71%	less than 5%					
CC(C)=CCC/C(C)=C/CC/C(C)=C/CC/C(C)=C/CO [GG, Geranyl geraniol]				does not inhibit	activates	not cytotoxic	not toxic	activates
